# Where two headings read alike, the source gives them in different places.
# Tests used:
# [1] = tested on: experimental animal models suffering from neuropathy, epilepsy or cerebral ischemia; details: in vivo; cited from earlier work
# neuronal culture system = details: substance alone; cited from earlier work
# AMPA/kainate receptor = details: cited from earlier work
# [2] = solubility in phosphate buffers of pH 5, 6, 7 and 8; assay type: physicochemical; details: aqueous buffer
# Protocol: 4) Measurement of solubility
# To a 0.1M aqueous solution of potassium dihydrogenphosphate, a 0.1M aqueous solution of […] was added, whereby buffers having pH of 5, 6, 7 and 8 were prepared, respectively.
# Measurement of Solubility:
# About 5 mg portions of the invention compound were weighed precisely in four glass test tubes and 0.1 ml phosphate buffers having pH 5, 6, 7 and 8 were added, respectively, followed by thorough shaking. The value obtained in accordance with the following equation was taken as the solubility. [formula]
# AMPA receptor = test: inhibitory activity against the binding of [3H]-AMPA (rat cerebral membrane); details: about 45 nM [3H]-AMPA, 45 minutes on ice water, non-specific: 10 μM quisqualic acid, read-out: Ki value, inhibition of [3H]-AMPA binding
# Protocol: Inhibitory activity against the binding with [^3 H]-AMPA, kainic acid neurotoxicity and audiogenic seizure were confirmed as follows:
# 1) Measurement of inhibitory activity against the binding of [^3 H]-AMPA:
# On ice water, 0.5 ml in total of a reaction liquid containing about 45 nM [^3 H]-AMPA [2-amino-3-(3-hydroxy-5-methyl-4-isoxazolyl)propionic acid], about […] of a sample of a rat cerebral membrane and a test compound was reacted for 45 minutes. The amount of [^3 H]-AMPA bound to the AMPA receptor was measured by the filtration method. A portion substituted by 10 μM quisqualic acid in the total bound amount was taken as the specific binding amount. Evaluation of the test compound was carried out by determining the binding inhibition ratio against the specific binding.
# [3] = tested on: hippocampal neuron (kainic acid neurotoxicity); test: inhibitory activity against kainic acid neurotoxicity in primary culture of hippocampal neurons (LDH release); assay type: cell-based; details: 300 μM kainic acid, 24 hours, fetal rat hippocampal neuron, read-out: IC50, inhibition of neuronal death caused by kainic acid
# Protocol: 2) Measurement of inhibitory activity against kainic acid neurotoxicity:
# Inhibitory action of the invention compound against kainic acid neurotoxicity was investigated using the primary culture system of the hippocampal neuron of a fetal rat.
# (1) Incubation conditions
# The hippocamp was cut out from a brain of the 18 to 20-day-old fetal rat and was subjected to enzyme treatment with papain and DNase I to disperse the cells. The cells so obtained were floated on MEM containing 10% serum and then were inoculated on a 48-well plate treated in advance with poly-I-lysine in a concentration of 4×10^5 cell/cm^2. Twenty four hours later, the serum was replaced by a serum-free medium. The medium replacement was carried out twice a week. The cells which were cultivated for at least 6 days were provided for the following test.
# (2) Inhibition against kainic acid neurotoxicity
# Neurotoxicity was expressed by an activity of lactate dehydrogenase released in the culture medium by the cell death. As a control, neurons which were exposed to a serum-free medium containing 300 μM kainic acid for 24 hours were used. Each compound, together with 300 μM kainic acid, was allowed to act on the neuron for 24 hours and inhibitory action of each compound against neuronal death caused by kainic acid was evaluated.
# [4] = tested on: DBA/2 mouse (audiogenic seizure); test: audiogenic seizure inhibitory action in DBA/2 mouse; assay type: in vivo; details: ip, 0.25 h, intraperitoneal, 15 minutes before stimulation by sound of 12 kHz and 120 dB, male 21 to 28-day-old mice, read-out: minimum effective dose (MED), suppression of audiogenic seizure
# Protocol: 3) Measurement of audiogenic seizure inhibitory action in DBA/2 mouse
# Ten male 21 to 28-day-old mice were exposed to auditory and stimulation by the sound of 12 kHz and 120 dB in a sound proof box for one minute or until these mice cause tonic seizure. The test compound was suspended in a 0.5% methylcellulose solution or dissolved in physiological saline and the resulting suspension or solution was intraperitoneally administered 15 minutes before the stimulation by the sound. The drug efficacy was evaluated by presence or absence of the appearance of seizure and the minimum effective dose (MED) was determined.
# [5] = tested on: experimental animal models suffering from cerebral ischemia; details: in vivo; cited from earlier work
# [6] = phosphate buffer pH 6, read-out: solubility, pH 6
compound,measurement,setting,value
NC(CCCP(=O)(O)O)C(=O)O (stereo not shown) [2-amino-5-phosphonovalerianic acid],"effect in experimental animal models of neuropathy, epilepsy or cerebral ischemia (in words)",[1],effective
NC(CCCCCP(=O)(O)O)C(=O)O (stereo not shown) [2-amino-7-phosphonoheptanic acid],"effect in experimental animal models of neuropathy, epilepsy or cerebral ischemia (in words)",[1],effective
"Cc1onc(O)c1CC(N)C(=O)O (stereo not shown) [AMPA, 2-amino-3-(3-hydroxy-5-methyl-4-isoxazolyl)propionic acid]",neuronal cell death in neuronal culture (in words),neuronal culture system,weak
same,affinity with the AMPA/kainate receptor (in words),AMPA/kainate receptor,high affinity
"O=C(O)Cn1c(=O)c(=O)[nH]c2cc([N+](=O)[O-])c(-n3ccnc3)cc21 [Example 1, 2-[2,3-dioxo-7-(1H-imidazol-1-yl)-6-nitro-1,2,3,4-tetrahydroquinoxalin-1-yl]acetic acid]",solubility,"[2]; phosphate buffer pH 5, read-out: solubility, pH 5",2490 µg/mL
same,solubility,[2]; [6],2620 µg/mL
same,solubility,"[2]; phosphate buffer pH 7, read-out: solubility, pH 7",3640 µg/mL
same,solubility,"[2]; phosphate buffer pH 8, read-out: solubility, pH 8",5130 µg/mL
same,Ki,AMPA receptor,730 nM
same,IC50,[3],800 nM
same,minimal effective dose,[4],3 mg/kg
"O=C(O)Cn1c(=O)c(=O)[nH]c2cc(C(F)(F)F)c(-n3ccnc3)cc21 [Example 9, 2-[2,3-dioxo-7-(1H-imidazole-1-yl)-6-trifluoromethyl-1,2,3,4-tetrahydroquinoxalin-1-yl]acetic acid]",solubility,[2]; [6],4100 µg/mL
same,Ki,AMPA receptor,93 nM
same,IC50,[3],960 nM
same,minimal effective dose,[4],10 mg/kg
"O=C(O)Cn1c(=O)c(=O)[nH]c2cc(OCc3ccccc3)c(-n3ccnc3)cc21 [Example 19, 2-[6-benzyloxy-2,3-dioxo-7-(1H-imidazol-1-yl)-1,2,3,4-tetrahydroquinoxalin-1-yl]acetic acid]",Ki,AMPA receptor,70 nM
same,IC50,[3],480 nM
same,minimal effective dose,[4],1 mg/kg
NC1CCN(O)C1=O (stereo not shown) [HA-966],effect in experimental animal models of cerebral ischemia (in words),[5],effective
NS(=O)(=O)c1cccc2c1c([N+](=O)[O-])cc1[nH]c(=O)c(=O)[nH]c12 [NBQX],effect in experimental animal models of cerebral ischemia (in words),[5],effective
C=C(C)[C@H]1CN[C@H](C(=O)O)[C@H]1CC(=O)O [kainic acid],neuronal cell death in neuronal culture (in words),neuronal culture system,causes marked neuronal cell death
same,affinity with the AMPA/kainate receptor (in words),AMPA/kainate receptor,low affinity

# — patent US6096743A, “1,2,3,4-tetrahydroquinoxalinedione derivative” (Yamanouchi Pharmaceuticals Co., Ltd., priority 1994, dated 2000)
